Data on three compounds can be found in ChEMBL document CHEMBL4715893, “Inhibitory effects of sesquiterpene lactones from the Indonesian marine sponge Lamellodysidea cf. herbacea on bone morphogenetic protein-induced osteoblastic differentiation” (Bioorg Med Chem Lett, 2021).

The test system of test [1] is C2C12. The test is described as follows: Cytotoxicity against mouse C2C12 cells assessed as reduction in cell viability by MTT assay. The format is cell-based.
Test [2] can be described thus: Inhibition of BMP-induced mouse C2C12 cells osteoblastic differentiation assessed as reduction in alkaline phosphatase activity. The format is functional, cell-based.

For the compound `C=C1C[C@@H]2C[C@@](C)(CCC3=CC(=O)O[C@@]32OC)[C@H]1C`, the IC50 (as a rule, the point on the concentration scale where inhibition reaches its midpoint) in test [1] was > 76 µM; in test [2] it was 51 µM.

As for `CC1=CCC[C@@H](C)[C@]1(C)CCC1=CC(=O)OC1O` (stereo partly specified), the values for the IC50 in test [1] and in test [2] were > 40 µM and 4.8 µM, respectively.

Consider `COC1C=C(CC[C@]2(C)C(C)=CCC[C@H]2C)C(=O)O1` (stereo partly specified), for which the IC50 in test [1] was > 38 µM; in test [2], 20 µM.
